# Laboratory results from patent US4470840A, “1-Triacontanol plant growth stimulator formulations” (Biochemical Research Corporation, priority 1981, dated 1984).
# Experiments:
# Assay type in all cases: in vivo
# [1] = tested on: Field Corn (cv. Trojan TXS 94); assay: Field trial: crop yield and seed size; details: 1-triacontanol 0.25 mg/liter; for % increase (wt. of seed) / % increase (wt./15 ears) / Wt. of seed / Wt./15 ears: TRIACON-10, pH 10.4; for Percent increases (size of seeds) / Wt. of treated seed: cv. Trojan TXS 94, 1000 seeds; for Wt. of treated seed: control seed 252
# Method: (§1) Field trials were conducted in Northern Virginia on plots that were replicated at least five items. Plots consisted of single rows of plants in blocks of three or more plots, with treatments being assigned randomly within each block.
# (§2) Plants were fertilized with the fertilizers described in Table 1, and sprayed at air temperatures listed in the same Table. Spraying was usually avoided under windy conditions to avoid drift. In the examples set forth herein, data were treated in a similar manner to those found in the greenhouse trials, with analysis of variance performed for each trial, and the use of a suitable statistical method for the analysis of results, preferably Duncan's multiple range test.
# [2] = tested on: Hybrid Sweet Corn Seedlings (cv. Silver Queen); assay: Greenhouse trial: dry weight and water uptake of seedlings after foliar spraying
# Radishes (cv. Champion) = assay: Field trial: crop yield; details: 1-triacontanol 0.25 mg/liter, pH 9.7; for Dry wt. (crop yield): per twenty plants, without foliage
# Method: as §1, §2
# Peas (cv. Dark Skin) = assay: Field trial: marketable yield; details: 1-triacontanol 0.25 mg/liter, pH 8.7; for Fresh wt (marketable yield): per 12 plants per plot
# Method: as §1, §2
# [3] = tested on: Beans (cv. Blue Lakes Stringless, Early Bird); assay: Field trial: crop yield and seed size; details: 100 seeds, CaCl2 5 mM, no IAA, 1-triacontanol 0.25 mg/liter
# Method: as §1
# (§3) Plants were fertilized with the fertilizers described in Table 1, and sprayed at air temperatures listed in the same Table. Spraying was usually avoided under windy conditions to avoid drift.
# [4] = tested on: Sweet Corn (cv. Silver Queen, Early Sunglow, Jubilee); assay: Field trial: crop yield and seed size; details: for Percent increase in marketable yield: triacontanol 0.25 mg/l
# Method: as §1, §3
# [5] = 14-day old seedlings, 1-triacontanol 0.1 mg/liter alone, no plant growth substance (Formulation 2)
# [6] = 14-day old seedlings, metal ion 9 mM (none in the last line) with 1-triacontanol 0.1 mg/liter, pH 8 to 10, Formulation 4
# [7] = Formulation 4, 1-triacontanol 0.5 mg/liter, 10 mM CaCl2, pH 8.1, test seed first generation (sprayed) vs control first (not sprayed)
# [8] = Formulation 4, 1-triacontanol 0.5 mg/liter, 10 mM CaCl2, pH 8.1, test seed second generation (first and second sprayed) vs control second (first and second not sprayed)
# [9] = Formulation 4, 1-triacontanol 0.5 mg/liter, 10 mM CaCl2, pH 8.1, test seed second generation (first and second sprayed) vs control second (second was sprayed only)
# [10] = Formulation 4, 1-triacontanol 0.5 mg/liter, 10 mM CaCl2, pH 8.1, test seed second generation (first was sprayed only) vs control second (first and second not sprayed)
smiles,measurement,setting,value
"CCCCCCCCCCCCCCCCCCCCCCCCCCCCCCO [1-Triacontanol, 1-triacontanol]",% increase (wt. of seed),"[1]; CaCl2 1 mM, no IAA",+27%
same,% increase (wt./15 ears),"[1]; CaCl2 1 mM, no IAA",+33%
same,Wt. of seed,"[1]; CaCl2 1 mM, no IAA, control 1740 g",2211 g
same,Wt./15 ears,"[1]; CaCl2 1 mM, no IAA, control 1777 g",2356 g
same,% increase (wt. of seed),"[1]; CaCl2 3 mM, IAA 0.01 mM",+34%
same,% increase (wt./15 ears),"[1]; CaCl2 3 mM, IAA 0.01 mM",+46%
same,Wt. of seed,"[1]; CaCl2 3 mM, IAA 0.01 mM",2342 g
same,Wt./15 ears,"[1]; CaCl2 3 mM, IAA 0.01 mM",2950 g
same,Percent increases (size of seeds),"[1]; CaCl2 1 mM, no IAA",+18%
same,Wt. of treated seed,"[1]; CaCl2 1 mM, no IAA",297 g
same,Percent increases (size of seeds),"[1]; CaCl2 3 mM, IAA 0.01 mM",+27%
same,Wt. of treated seed,"[1]; CaCl2 3 mM, IAA 0.01 mM",319 g
same,Increase in dry weight,"[2]; 1-triacontanol 0.1 mg/liter, Formulation 4, additive 9 mM (none in the last line)",+21%
same,"Increases, H2O uptake",[2]; [5],+16%
same,"Increases, dry wt.",[2]; [5],+20%
same,% increase (dry weight),[2]; [6],+21%
same,% increase (water uptake),[2]; [6],+16%
same,Dry weight,"[2]; 14-day old seedlings, metal ion 9 mM (none in the last line) with 1-triacontanol 0.1 mg/liter, pH 8 to 10, Formulation 4, control 0.86 g",1.04 g
same,Water uptake,"[2]; 14-day old seedlings, metal ion 9 mM (none in the last line) with 1-triacontanol 0.1 mg/liter, pH 8 to 10, Formulation 4, control 8.7 g",10.1 g
same,"Increases, H2O uptake","[2]; 14-day old seedlings, no metal salt, 1-triacontanol 0.1 mg/liter, Formulation 1 as printed",+16%
same,"Increases, H2O uptake",[2]; [7],+41%
same,"Increases, dry wt.",[2]; [7],+44%
same,"Increases, H2O uptake",[2]; [8],+78%
same,"Increases, dry wt.",[2]; [8],+80%
same,"Increases, H2O uptake",[2]; [9],+46%
same,"Increases, dry wt.",[2]; [9],+41%
same,"Increases, H2O uptake",[2]; [10],+40%
same,"Increases, dry wt.",[2]; [10],+44%
same,"Increases, dry wt.","[2]; foliar, 0.1 ug/mL",+20%
same,Percent increases (crop yield),"Radishes (cv. Champion); CaCl2 10 mM, no IAA",32%
same,Dry wt. (crop yield),"Radishes (cv. Champion); CaCl2 10 mM, no IAA, control 93 g",123 g
same,Percent increases (crop yield),"Radishes (cv. Champion); CaCl2 50 mM, IAA 10 μM",+69%
same,Dry wt. (crop yield),"Radishes (cv. Champion); CaCl2 50 mM, IAA 10 μM",157 g
same,Percent increases (marketable yield),"Peas (cv. Dark Skin); CaCl2 10 mM, no IAA",+35%
same,Fresh wt (marketable yield),"Peas (cv. Dark Skin); CaCl2 10 mM, no IAA, control 59",78 gm
same,Percent increases (marketable yield),"Peas (cv. Dark Skin); CaCl2 15 mM, no IAA",+63%
same,Fresh wt (marketable yield),"Peas (cv. Dark Skin); CaCl2 15 mM, no IAA",97 gm
same,Percent increases (marketable yield),"Peas (cv. Dark Skin); CaCl2 50 mM, IAA 10 μM",+32%
same,Fresh wt (marketable yield),"Peas (cv. Dark Skin); CaCl2 50 mM, IAA 10 μM",79 gm
same,Percent increases (marketable yield),"Peas (cv. Dark Skin); CaCl2 75 mM, IAA 10 μM",+69%
same,Fresh wt (marketable yield),"Peas (cv. Dark Skin); CaCl2 75 mM, IAA 10 μM",100 gm
same,Percent increases (size of seeds),[3],+54%
same,Wt. of treated seed,[3]; control seed 18.1,27.8 g
same,Percent increase in marketable yield,"[4]; cv. Early Sunglow, CaCl2 10 mM, no IAA, pH 9.8",+47%
same,Percent increase in marketable yield,"[4]; cv. Early Sunglow, CaCl2 50 mM, IAA 10 μM, pH 9.8",+20%
same,Percent increase in marketable yield,"[4]; cv. Jubilee, CaCl2 10 mM, no IAA, pH 9.7",+44%
same,Percent increase in marketable yield,"[4]; cv. Jubilee, CaCl2 50 mM, IAA 10 μM, pH 9.7",+31%
same,Percent increases (size of seeds),"[4]; cv. Silver Queen, 500 seeds, CaCl2 9 mM, no IAA, 1-triacontanol 0.25 mg/liter",+47%
same,Wt. of treated seed,"[4]; cv. Silver Queen, 500 seeds, CaCl2 9 mM, no IAA, 1-triacontanol 0.25 mg/liter, control seed 29.7 g",43.8 g
same,Percent increase in marketable yield,"[4]; cv. Silver Queen, CaCl2 10 mM, no IAA, pH 10.4",+49%
same,Percent increase in marketable yield,"[4]; cv. Silver Queen, CaCl2 50 mM, IAA 10 μM, pH 10.4",+16%
same,Increases (field trial data for the previous year),"[4]; cv. Silver Queen, previous year, three out of three trials",51-54%
